Where two headings read alike, the source gives them in different places.
What was measured:
X-ray irradiated mice = assay: Radiation dermatitis murine model (thoracic X-ray irradiation); type: in vivo, C57BL/6 mice
Experimental: Animals were irradiated in the RS2000 small animal irradiator. The RS2000 provides a cone-shaped radiation field with irradiation at 12.39-40.50 cm from the X-ray source. For dose measurements, irradiation was performed with the following settings: 160 kVp, 25 mA, 90 s irradiation time and 0.3 mm Cu beam filtration. The approximate HVL provided by the manufacturer was 0.62 mm Cu. […] A custom lead shield was placed on the floor of the irradiator, with the mouse thoracic region ˜43.75 cm from the X-ray source. Dose measurements were conducted twice to account for set-up error and reproducibility. […] The dose rate was reported for each aperture position 1-4 as an absorbed dose rate to water (ADRW, Gy/min) and the two repeated measurements were averaged.
Mice (12-14 weeks of age) were anesthetized using inhaled anesthesia (isoflurane), and the fur was clipped on the dorsal side of the thoracic region. […] Animals were then anesthetized with injected anesthesia (150 mg/kg ketamine/18 mg/kg xylazine) and placed in Lucite jigs for exposure to 16.5 Gy thoracic irradiation in the RS2000 X-ray irradiator as previously described [19].
Animals were monitored daily for 85 days post-irradiation for both radiation dermatitis and combined injury models. Radiation dermatitis was separately scored for hair loss, erythema, scale, and ulceration. Scoring for erythema, scale and ulceration were previously described: 0=none; 1=minimal; 2=mild; 3=moderate; 4=marked [19]. Because all animals underwent fur clipping prior to irradiation and wounding, scoring for hair loss was determined as failure to regrow hair in the irradiated areas: 0=none; 1=minimal; 2=mild; 3=moderate; 4=marked. Animals were photographed for the measurement of wounds and for dermatitis scoring. […] Weight was measured as an indication of overall health.

[1] = system: X-ray irradiated and wounded mice; assay: Combined injury murine model (thoracic X-ray irradiation plus wound); type: in vivo, C57BL/6 mice
Description: The C57BL/6 strain of mice has been utilized extensively for the study of radiation-induced skin injuries. We determined that 16 Gy is the minimal dosage for the induction of radiation burns in C57BL/6 mice that are not repaired within 45 days. Sham irradiated mice without wounds were used as controls for radiation dermatitis, and treated identically as irradiated mice. Wounded mice, without radiation, were used as controls for combined injury.
Animals were irradiated in the RS2000 small animal irradiator. The RS2000 provides a cone-shaped radiation field with irradiation at 12.39-40.50 cm from the X-ray source. For dose measurements, irradiation was performed with the following settings: 160 kVp, 25 mA, 90 s irradiation time and 0.3 mm Cu beam filtration. The approximate HVL provided by the manufacturer was 0.62 mm Cu. The University of Wisconsin Medical Radiation Research Center (UW MRRC) provided eight acrylic mouse phantoms with three (1×1×1 mm) Harshaw thermoluminenscence dosimeter (TLD)-100 microcubes (ThermoElectron Corp., Oakwood Village, OH) embedded in each phantom. The cylindrical phantom had dimensions of 27 mm in diameter (D)×65 mm in length (L) and was stabilized by a cylindrical insert 15 mm (D)×27 mm (L) with a 3 mm thick stand. A custom lead shield was placed on the floor of the irradiator, with the mouse thoracic region ˜43.75 cm from the X-ray source. Dose measurements were conducted twice to account for set-up error and reproducibility. TLDs were processed at UW MRRC using a national standard with an expanded uncertainty (k=2) of 5%. The dose rate was reported for each aperture position 1-4 as an absorbed dose rate to water (ADRW, Gy/min) and the two repeated measurements were averaged.
Mice (12-14 weeks of age) were anesthetized using inhaled anesthesia (isoflurane), and the fur was clipped on the dorsal side of the thoracic region. Two days after fur clipping, mice to be used for combined injury were given acetaminophen (150 mg/kg in 0.5 ml sterile saline) by gavage. Animals were then anesthetized with injected anesthesia (150 mg/kg ketamine/18 mg/kg xylazine) and placed in Lucite jigs for exposure to 16.5 Gy thoracic irradiation in the RS2000 X-ray irradiator as previously described. For combined injury, immediately following thoracic irradiation and while still under anesthesia, the area of the skin was scrubbed with betadine or chlorhexidine, followed by cleaning with an alcohol pad. A 9/16 inch diameter punch biopsy tool was used to create a 1 cm wound in the central dorsal thoracic region, roughly in the center of the field of radiation exposure. The panniculus carnosus muscle and overlying skin will be removed. The wound will be left open to air. The size of the wound approximates 15% of the total body skin surface.
TSN6 peptide (5 μg/day in 50 μl sterile saline) or hepatocyte growth factor (HGF; 3.3 μg/day in 50 μl sterile saline) or vehicle (sterile saline, 50 μl) were injected subcutaneously on days 2, 7 and 10 post-irradiation. Injections were made caudal, adjacent to the irradiated or irradiated/wounded area.
Animals were monitored daily for 85 days post-irradiation for both radiation dermatitis and combined injury models. Radiation dermatitis was separately scored for hair loss, erythema, scale, and ulceration. Scoring for erythema, scale and ulceration were previously described: 0=none; 1=minimal; 2=mild; 3=moderate; 4=marked. Because all animals underwent fur clipping prior to irradiation and wounding, scoring for hair loss was determined as failure to regrow hair in the irradiated areas: 0=none; 1=minimal; 2=mild; 3=moderate; 4=marked. Animals were photographed for the measurement of wounds and for dermatitis scoring. […] Weight was measured as an indication of overall health.

dermal papilla cells = assay: Alkaline phosphatase activity (marker of trichogenicity) in cultured cells; type: cell-based; conditions: TSN18, treated for four days, in vitro
Experimental: Dermal papilla cells regulate hair follicle development and growth, unfortunately, maintaining dermal papilla cells inductive capacity is difficult in culture, as evident by their gradual loss of alkaline phosphatase activity in culture^3. To test if TSN peptides can increase alkaline phosphatase activity keratinocytes and dermal papilla cells were plated at 4000 and 2000 cells/well respectively in a 96 well plate with six replicates and cultured overnight. The media was changed and appropriate treatment-vehicle, scrambled peptide or active peptide—was added to the well. The media were changed with fresh media containing peptides 2 days after initial treatment, and the total culture period was 4 days, following which alkaline phosphatase activity was measured (FIG. 1). […]
Alkaline Phosphatase activity: Keratinocytes and dermal papilla cells were plated at 4000 and 2000 cells/well respectively in a 96 well plate with six replicates and cultured overnight. […] Alkaline phosphatase activity was measured according to manufacturer's instructions using Alkaline Phosphatase Yellow (pNPP) Liquid Substrate System for ELISA (Sigma Aldrich).
Materials and Methods: Cultured dermal papilla (DP) cells, specialized skin fibroblasts isolated from the base of hair follicles, were treated with TSN18 for four days. […] Graft sizes were measured by tracing the grafts and area determined using ImageJ (NIH) software.

[2] = system: dermal papilla (DP) cells; assay: Cell viability assay (MTT); type: cell-based; conditions: treated for four days, in vitro
Experimental: Cell viability assay: Keratinocytes and dermal papilla cells were plated at 4000 and 2000 cells/well respectively in a 96 well plate with six replicates and cultured overnight. The media was changed and appropriate treatment-vehicle, scrambled peptide or active peptide—was added to the well. The media were changed with fresh media containing peptides 2 days after initial treatment, and the total culture period was 4 days. The cell viability was then measured using CellTiter […] Non-Radioactive Cell Proliferation Assay (MTT) (Promega Corporation). Briefly, 15 μL of dye solution was added to each well and incubated for 4 h at 37° C. and 5% CO2. Next 100 μL of stop solution was added to the mixture, incubated for an hour and absorbance was recorded at 570 nm using a plate reader.
Materials and Methods: Cultured dermal papilla (DP) cells, specialized skin fibroblasts isolated from the base of hair follicles, were treated with TSN18 for four days. Cell viability was measured using the CellTiter 96 Non-radioactive cell proliferation assay (MTT) kit. Alkaline phosphatase activity, a marker of trichogenicity was measured with the alkaline phosphatase yellow (pNPP) liquid substrate system for ELISA. […] The bandages were changed at two weeks and removed after four weeks and the grafts were monitored through 10 weeks. […]

mice with CI = assay: Combined injury (CI) pilot study with active or scrambled peptide; type: in vivo, C57BL/6 mouse; conditions: s.c. near wound on days 2, 7, 10 post-irradiation; 5 mice per group (FIG. 15)
Description: Mice were exposed to thoracic X-ray irradiation without excision wounding to induce CRI, and with an experimental excision wound within the irradiated region to induce CI. Animals were scored by researchers blinded to the treatment groups. Photographic documentation was made for each experiment. We evaluated the rate of wound healing from days 1-30 post-irradiation, and the severity of dermatitis was scored using four variable measures (erythema, scale, hair loss, and ulceration) in the mice from 14 days post-irradiation (dpi) until necropsy. Specific cellular and protein expression changes were determined using western blotting and immunohistochemistry (IHC). To evaluate the efficacy of bioactive peptides, mice with CI were treated with active peptides or scrambled peptides (negative control) by subcutaneous injection near the wound site on days 2, 7, and 10 post-irradiation. Additionally, vehicle control CI animals received saline (vehicle for the peptides) injections in the same volumes on the same days.

[3] = system: wound re-epithelization and closure; conditions: in vitro, previous studies; cited from earlier work
grafted DECs = assay: Graft survival and size of TSN18-treated DECs grafted on nude mice; type: in vivo, Cr: NIH(S)-nu/nu mice
Experimental: Materials and Methods: Cultured dermal papilla (DP) cells, specialized skin fibroblasts isolated from the base of hair follicles, were treated with TSN18 for four days. Cell viability was measured using the CellTiter 96 Non-radioactive cell proliferation assay (MTT) kit. Alkaline phosphatase activity, a marker of trichogenicity was measured with the alkaline phosphatase yellow (pNPP) liquid substrate system for ELISA. A pilot study was performed to see whether incorporation of TSN18 active peptide in DECs improves graft survival or size. For the construction of DECs, human DP cells suspended in 1 mg/mL rat tail type I collagen were plated on inserts placed in six-well plates and incubated in media containing TSN18 active or scrambled peptide for 3 days. Subsequently, human neonatal foreskin keratinocytes were layered on top and the media changed to Epi medium containing TSN18 active or scrambled peptide for 2 days. […] The bandages were changed at two weeks and removed after four weeks and the grafts were monitored through 10 weeks. […] At the end of the experiment, the histological appearance of grafts was evaluated for the presence of a human stratified squamous epithelium and the presence or absence of human cells was assessed by staining for human leukocyte antigen. Graft sizes were measured by tracing the grafts and area determined using ImageJ (NIH) software.

[4] = system: wound re-epithelization and closure; conditions: in BALB/c mice, previous studies; cited from earlier work
[5] = 16.5 Gy, s.c. days 2, 7, 10 post-irradiation, TSN6 5 μg/day, HGF 3.3 μg/day, vs vehicle
[6] = 16.5 Gy plus wound, s.c. days 2, 7, 10, TSN6 5 μg/day, HGF 3.3 μg/day

Substance | ulceration score (X-ray irradiated mice; 16.5 Gy, s.c. days 2, 7, 10 post-irradiation, HGF 3.3 μg/day, vs vehicle) | erythema score (X-ray irradiated mice; [5]) | hair loss score (X-ray irradiated mice; [5]) | radiation dermatitis (overall measures) (X-ray irradiated mice; [5]) | scale score (X-ray irradiated mice; [5]) | adipose layer in H&E histological sections (X-ray irradiated mice; skin 83 days post-irradiation, radiation alone) | ulceration score ([1]; 16.5 Gy plus wound, HGF 3.3 μg/day s.c. days 2, 7, 10) | characteristics of radiation dermatitis (hair loss, scale, erythema, ulceration) including combined score [1, 6] | rate of wound closure / wound repair [1, 6] | adipose layer in histological sections ([1]; combined injury, 83 days post-irradiation) | alkaline phosphatase activity of DP cells (dermal papilla cells) | cell viability of DP cells [2] | decrease of severity of aggregate radiation dermatitis scores (mice with CI) [%] | wound re-epithelization and closure [3] | average graft size (grafted DECs; at 10 weeks, peptide 10 μM, ImageJ) [mm2] | mice that retained the graft until 10 weeks (grafted DECs; peptide 10 μM in DECs, n=5 per group) | wound re-epithelization and closure [4]
HGF: Hepatocyte growth factor, a pluripotent factor; a known adult tissue repair factor | not markedly different | not markedly different | not markedly different | did not improve any measures | not markedly different | some improve preservation of the adipose layer | somewhat exacerbate ulceration | did not improve any measure | did not accelerate wound repair | some improvement in the adipose layer in some animals | – | – | – | – | – | – | –
QPQPLPSPGVGGKN [TSN18, 14 aa combination of non-helical Collagen (VI) Alpha-3 chain regions] | – | – | – | – | – | – | – | – | – | – | did not affect | did not affect | ~50 | promoted wound re-epithelization and closure | 16.4±5.4 | four out of five | promoted wound re-epithelization and closure

Source: patent US20250276999A1, “PEPTIDES FOR PROMOTING HAIR FOLLICLE NEOGENESIS, AND PREVENTION/MITIGATION OF UNTOWARD EFFECTS OF RADIATION TREATMENT” (Trustees of Tufts College, priority 2022, published 2025)
